The test system of assay [1] is phosphorylated AKT Ser473 (pAKT S473), mTORC2 activity, PC3 cells. Put plainly: mTOR target engagement assay, immunofluorescent cell-based, pAKT S473 readout (mTORC2 activity). Conditions: Homo sapiens. In a few lines: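 After blocking, cells were stained overnight at 4 °C with anti-pAKT S473 antibody, then a fluorescent secondary; inhibition was read as reduced fluorescence intensity.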

The test system of assay [2] is phosphorylated 4E-BP1 Thr37/46 (p4E-BP1 Thr37/46), mTORC1 activity, PC3 cells. The experiment in a line: mTOR target engagement assay, immunofluorescent cell-based, p4E-BP1 Thr37/46 readout (mTORC1 activity). The note with it: Homo sapiens, read-out: p4E-BP1 Thr37/46 IC50. In a few lines: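 Seed PC3 cells overnight; treat with compound dilutions for ninety minutes at 37° C; fix with glyoxal and block; stain with anti-p4E-BP1 Thr37/46 overnight at 4° C, then fluorescent secondary; read fluorescence and fit IC50 against DMSO-only controls.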

[3] abbreviates: PC-3, PC3 cells, compound treatment ninety minutes at 37° C.

In US9227971B2, “Pyrazolo[1,5-a]pyrimidine compounds as mTOR inhibitors” (Merck Sharp & Dohme Corp., priority 2010, dated 2016) one finds IC50 data, which are given here for eight molecules.

Where two headings read alike, the source gives them in different places.

With `Cc1cnc(-c2ccc(-c3cnn4c(N)c(S(C)(=O)=O)c([C@H]5CC6CC[C@H](C5)N6C(=O)c5cn[nH]n5)nc34)cn2)s1` [Compound 3.181, ((1R,3s,5S)-3-(7-amino-6-(methylsulfonyl)-3-(6-(5-methylthiazol-2-yl)pyridin-3-yl)pyrazolo[1,5-a]pyrimidin-5-yl)-8-azabicyclo[3.2.1]octan-8-yl)(2H-1,2,3-triazol-4-yl)methanone], the IC50 was 100 to 1000 nM in assay [1] (PC-3, Table 3-1, PC3 cells) and 1 to 100 nM in assay [2] (PC-3, Table 3-1, PC3 cells).

On to `CC(=O)c1c([C@@H]2C[C@H]3CC[C@@H](C2)N3C(=O)c2ccn[nH]2)nc2c(-c3ccc(-n4cc(C)cn4)nc3)cnn2c1N` [Compound 1.1.131, 1-(5-((1R,3s,5S)-8-(1H-pyrazole-5-carbonyl)-8-azabicyclo[3.2.1]octan-3-yl)-7-amino-3-(6-(4-methyl-1H-pyrazol-1-yl)pyridin-3-yl)pyrazolo[1,5-a]pyrimidin-6-yl)ethanone], for which the IC50 in assay [1] (setting [3]) and in assay [2] (setting [3]) was 100 to 1000 nM in each case.

As for `CC(=O)c1c([C@@H]2C[C@H]3CC[C@@H](C2)N3C(=O)c2nnc[nH]2)nc2c(-c3cnn(CCO)c3)cnn2c1N` [Compound 1.1.155, 1-(5-((1R,3s,5S)-8-(4H-1,2,4-triazole-3-carbonyl)-8-azabicyclo[3.2.1]octan-3-yl)-7-amino-3-(1-(2-hydroxyethyl)-1H-pyrazol-4-yl)pyrazolo[1,5-a]pyrimidin-6-yl)ethanone], the IC50 in assay [1] (setting [3]) and in assay [2] (setting [3]) was 1000 to 10000 nM in each case.

Take `COCc1cc(-c2ccc(-c3cnn4c(N)c(C(C)=O)c([C@@H]5C[C@H]6CC[C@@H](C5)N6C(=O)CO)nc34)cn2)ccc1OC` [Compound 1.1.44, 1-((1R,3s,5S)-3-(6-acetyl-7-amino-3-(6-(4-methoxy-3-(methoxymethyl)phenyl)pyridin-3-yl)pyrazolo[1,5-a]pyrimidin-5-yl)-8-azabicyclo[3.2.1]octan-8-yl)-2-hydroxyethanone]: the values for the IC50 in assay [1] (setting [3]) and in assay [2] (setting [3]) were 1 to 100 nM and 100 to 1000 nM, respectively.

In the case of `CS(=O)(=O)c1c([C@@H]2C[C@H]3CC[C@@H](C2)N3C(=O)c2cc(CO)n[nH]2)nc2c(-c3ccc(-c4ccccc4)nc3)cnn2c1N` [Compound 3.84, ((1R,3s,5S)-3-(7-amino-6-(methylsulfonyl)-3-(6-phenylpyridin-3-yl)pyrazolo[1,5-a]pyrimidin-5-yl)-8-azabicyclo[3.2.1]octan-8-yl)(3-(hydroxymethyl)-1H-pyrazol-5-yl)methanone], the IC50 in assay [1] (PC-3, Table 3-1, PC3 cells) lay within 1 to 100 nM; in assay [2] (PC-3, Table 3-1, PC3 cells), 100 to 1000 nM.

Take `CN1CCN(c2nnc(C(=O)N3C4CCC3CC(c3nc5c(-c6ccc(-c7ccccc7)nc6)cnn5c(N)c3C3CC3)C4)[nH]2)CC1` [Compound 8.102, ((1R,3s,5S)-3-(7-amino-6-cyclopropyl-3-(6-phenylpyridin-3-yl)pyrazolo[1,5-a]pyrimidin-5-yl)-8-azabicyclo[3.2.1]octan-8-yl)(5-(4-methylpiperazin-1-yl)-4H-1,2,4-triazol-3-yl)methanone]: the IC50 in assay [1] (PC-3, PC3 cells) was 1000 to 10000 nM; in assay [2] (PC-3, PC3 cells) it was 1000 to 10000 nM.

Take `CC(=O)c1c([C@@H]2C[C@H]3CC[C@@H](C2)N3C(=O)c2nnc[nH]2)nc2c(-c3cnn(-c4ccc(F)cc4)c3)cnn2c1N` [Compound 1.1.123, 1-(5-((1R,3s,5S)-8-(4H-1,2,4-triazole-3-carbonyl)-8-azabicyclo[3.2.1]octan-3-yl)-7-amino-3-(1-(4-fluorophenyl)-1H-pyrazol-4-yl)pyrazolo[1,5-a]pyrimidin-6-yl)ethanone]: the IC50 in assay [1] (setting [3]) is 100 to 1000 nM; in assay [2] (setting [3]), 1000 to 10000 nM.

As for `Nc1cc([C@@H]2C[C@H]3CC[C@@H](C2)N3C(=O)[C@H]2CCCN2)nc2c(-c3ccc(-c4ccccc4)nc3)cnn12` [Compound 2.19, ((1R,3S,5S)-3-(7-amino-3-(6-phenylpyridin-3-yl)pyrazolo[1,5-a]pyrimidin-5-yl)-8-azabicyclo[3.2.1]octan-8-yl)((R)-pyrrolidin-2-yl)methanone], the IC50 lay within 100 to 1000 nM in assay [1] (setting [3]) and 1000 to 10000 nM in assay [2] (setting [3]).
